# In patent publication EP0583566A2, “Process for the preparation of glycine-conjugated bile acids and relative pharmaceutical compositions useful for treating hepatic insufficiency” (ERREGIERRE INDUSTRIA CHIMICA Spa, priority 1992, dated 1994):
# Like-named read-outs stand apart in the source and are kept apart here.
# Key:
# [1] = system: hepatotoxic effects of TUDCA; experiment: hepatoprotective activity against bile acid hepatotoxicity on co-administration; format: in vivo; conditions: 0.8 µmol/min/100g
# From the text: Normal values of alkaline phosphatase (ALP) and biliary lactate dehydrogenase (LDH) as well as of bile flow and calcium secretion are thereby obtained.
# [2] = critical micellar concentration (detergent capacity); format: physicochemical
# [3] = in vivo
# From the text: (§1) GUDCA is well absorbed by the intestine through a double mechanism, i.e. active and passive, transported to the liver by the portal system and uptaken. It passes rapidly through the liver without being metabolized and is then secreted in the bile with high transport rate and efficiency.
# uptake by the liver = format: in vivo
# From the text: as §1, with “efficiency. UDCA is absorbed only through a passive mechanism and is uptaken by liver at 50% (GUDCA at 80%).” for “efficiency.”
logP (physchem),critical micellar concentration [2],hepatic extraction ratio (uptake by the liver; in vivo),pKa (pKa),SMILES,prevention of hepatotoxic effects ([1]; administered with TUDCA at the same dose),alkaline phosphatase (ALP) and biliary lactate dehydrogenase (LDH) ([1]; for GUDCA also bile flow and calcium secretion normal),Fa [3],pH values of the intestine contents at which absorbed [3],"hepatic extraction ratio (uptake by the liver; liver, read-out: uptaken by liver)"
2,12 µM,0.8,,"C[C@H](CCC(=O)NCC(=O)O)[C@H]1CC[C@H]2[C@@H]3[C@@H](O)C[C@@H]4C[C@H](O)CC[C@]4(C)[C@H]3CC[C@]12C [GUDCA, glycoursodeoxycholic acid]",can prevent the hepatotoxic effects,Normal values,100%,,
,,,~1,"C[C@H](CCC(=O)NCCS(=O)(=O)O)[C@H]1CC[C@H]2[C@@H]3[C@@H](O)C[C@@H]4C[C@H](O)CC[C@]4(C)[C@H]3CC[C@]12C [TUDCA, tauroursodeoxycholic acid]",,,,,
,,,,"C[C@H](CCC(=O)O)[C@H]1CC[C@H]2[C@@H]3[C@@H](O)C[C@@H]4C[C@H](O)CC[C@]4(C)[C@H]3CC[C@]12C [UDCA, ursodeoxycholic acid]",,,50%,8.5,0.5
